In patent publication US8163756B2 (priority 2004, dated 2012):

How the values were obtained:
Assay type in all cases: biochemical
[1] = target: phosphorylated p-38-alpha kinase (Homo sapiens, UniProt Q16539); test: P-38 alpha kinase assay P1 (coupled spectrophotometric, 2 h pre-incubation); settings: method P1 (2 h pre-incubation); read-out: P-38 Data
[2] = target: B-Raf(V599E) kinase (Homo sapiens, UniProt P15056, V600E); test: B-Raf(V599E) kinase assay B1 (construct 1, MEK1 substrate, coupled spectrophotometric)
Chain of B-Raf(V599E) kinase (P15056 with tags, fused parts or gaps V600E): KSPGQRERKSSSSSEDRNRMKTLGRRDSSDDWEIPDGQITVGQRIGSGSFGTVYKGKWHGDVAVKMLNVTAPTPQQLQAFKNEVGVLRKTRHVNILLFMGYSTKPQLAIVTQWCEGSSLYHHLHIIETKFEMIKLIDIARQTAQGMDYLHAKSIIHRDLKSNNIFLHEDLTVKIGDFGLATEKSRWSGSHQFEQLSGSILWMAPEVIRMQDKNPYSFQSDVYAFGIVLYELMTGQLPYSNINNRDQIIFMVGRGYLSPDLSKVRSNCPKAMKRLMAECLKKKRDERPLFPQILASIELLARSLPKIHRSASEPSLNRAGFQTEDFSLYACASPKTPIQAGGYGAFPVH
Description: The test compounds were incubated with the reaction mixtureat 30° C. for 2 h. […] The reaction rate was calculated using the […] time frame. […] IC50 values were calculated from a series of percent inhibition values determined at a range of inhibitor concentrations using software routines as implemented in the GraphPad Prism software package.

[3] = target: KDR kinase (Homo sapiens, UniProt P35968, DEL940-989/E990V); test: KDR kinase assay K2 (as K1, 2.1 nM enzyme, 2 h pre-incubation, 1.0 mM ATP); settings: Method K2; read-out: KDR Data (IC50)
Chain of KDR kinase (P35968 with tags, fused parts or gaps DEL940-989/E990V): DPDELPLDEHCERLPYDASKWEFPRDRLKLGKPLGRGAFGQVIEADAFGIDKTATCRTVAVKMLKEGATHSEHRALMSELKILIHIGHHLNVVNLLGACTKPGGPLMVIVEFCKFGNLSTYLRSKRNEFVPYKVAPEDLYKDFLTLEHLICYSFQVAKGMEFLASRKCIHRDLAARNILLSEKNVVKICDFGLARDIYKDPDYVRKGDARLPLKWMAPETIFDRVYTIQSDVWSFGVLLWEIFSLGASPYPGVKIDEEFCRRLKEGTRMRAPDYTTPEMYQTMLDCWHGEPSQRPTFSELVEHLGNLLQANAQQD
Description: (§1) IC50 values were calculated from a series of percent inhibition values determined at a range of inhibitor concentrations using software routines as implemented in the GraphPad Prism software package.

[4] = target: T1, Abl kinase (Homo sapiens, UniProt P00519); test: Abl kinase assay A1 (pyruvate kinase/lactate dehydrogenase coupled, spectrophotometric); settings: Method A1; read-out: Abl Data (IC50)
T1 sequence (P00519 229-512): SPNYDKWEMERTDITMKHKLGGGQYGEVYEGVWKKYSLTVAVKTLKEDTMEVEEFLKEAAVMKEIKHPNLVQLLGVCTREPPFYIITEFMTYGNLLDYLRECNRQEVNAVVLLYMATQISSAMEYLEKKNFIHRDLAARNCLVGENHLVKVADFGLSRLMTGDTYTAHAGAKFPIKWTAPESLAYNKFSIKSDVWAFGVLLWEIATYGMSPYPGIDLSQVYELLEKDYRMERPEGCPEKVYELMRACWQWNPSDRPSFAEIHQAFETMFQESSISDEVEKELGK
Description: as §1

[5] = target: T1, Abl kinase; test: Abl kinase assay A2 (as A1, 1.1 nM enzyme, 2 h pre-incubation, 0.5 mM ATP); settings: Method A2; read-out: Abl Data (IC50)
Description: as §1

Chain of phosphorylated p-38-alpha kinase (Q16539 1-360 isoform Q16539-2): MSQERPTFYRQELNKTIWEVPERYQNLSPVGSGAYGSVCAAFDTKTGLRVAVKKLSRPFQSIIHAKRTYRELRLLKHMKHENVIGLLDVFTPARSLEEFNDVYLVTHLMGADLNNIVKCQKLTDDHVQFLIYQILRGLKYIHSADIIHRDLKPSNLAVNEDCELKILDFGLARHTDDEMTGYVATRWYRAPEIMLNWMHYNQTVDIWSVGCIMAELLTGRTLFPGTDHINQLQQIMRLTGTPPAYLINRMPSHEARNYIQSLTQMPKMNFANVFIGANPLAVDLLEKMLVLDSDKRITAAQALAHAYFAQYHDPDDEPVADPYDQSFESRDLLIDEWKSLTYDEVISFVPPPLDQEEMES

Compound: CC(C(N)=O)c1cccc(-n2nc(C(C)(C)C)cc2NC(=O)Nc2cccc(Cl)c2Cl)c1 (centres unmarked) [Example 249, 1-(1-(3-(1-amino-1oxopropan-2-yl)phenyl)-3-t-butyl-1H-pyrazol-5-yl)-3-(2,3-dichlorophenyl)urea]
- IC50 [1]: 11 nM
- IC50 [2]: 4.5 nM
- IC50 [3]: 590 nM

Compound: CC(C)(C)c1cc(NC(=O)Nc2ccc(Cl)cc2)n(-c2cccc(C#N)c2)n1 [Example 7, 1-(3-t-butyl-1-(3-cyanophenyl)-1H-pyrazol-5-yl)-3-(4-chlorophenyl)urea]
- IC50 [4]: 5200 nM
- IC50 [2]: 8.2 nM
- IC50 [3]: 870 nM

Compound: CC(C)(C)c1cc(NC(=O)Nc2cccc(Oc3cccnc3)c2)n(-c2ccc3c(c2)CCNC3C(=O)NCC(O)CO)n1 (centres unmarked) [Example 184, 1-(1-(1-((2,3-dihydroxypropyl)carbamoyl)-1,2,3,4-tetrahydroisoquinolin-6-yl)-3-t-butyl-1H-pyrazol-5-yl)-3-(3-(pyridin-3-yloxy)phenyl)urea]
- IC50 [5]: 10 nM

Compound: Cc1ccc(NC(=O)Nc2cc(C(C)(C)C)nn2-c2ccc3nc(N4CCNCC4)ccc3c2)cc1Nc1nccc(-c2cccnc2)n1 [Example 171, 1-(3-t-butyl-1-(2-(piperazin-1-yl)quinolin-6-yl)-1H-pyrazol-5-yl)-3-(4-methyl-3-(4-(pyridin-3-yl)pyrimidin-2-ylamino)phenyl)urea]
- IC50 [5]: 4 nM

Compound: CC(C)(C)c1cc(NC(=O)Nc2cccc(Cl)c2Cl)n(-c2ccc(CC(=O)N3CCC(C(=O)O)CC3)cc2)n1 [Example 498, 1-[2-(4-{3-t-butyl-5-[3-(2,3-dichlorophenyl)ureido]-1H-pyrazol-1-yl}-phenyl)acetyl]piperidine-4-carboxylic acid]
- IC50 [1]: 9 nM
- IC50 [2]: 52 nM
- IC50 [3]: 1700 nM

Compound: O=C(Nc1cccc(Oc2cccnc2)c1)Nc1cc(C2CCCC2)nn1-c1ccc2[nH]c(=O)ccc2c1 [Example 164, 1-(3-cyclopentyl-1-(2-oxo-1,2-dihydroquinolin-6-yl)-1H-pyrazol-5-yl)-3-(3-(pyridin-3-yloxy)phenyl)urea]
- IC50 [5]: 33 nM

Compound: CC(C)(C)c1cc(NC(=O)Nc2cc(F)c(F)cc2F)n(-c2ccc3c(c2)CCN3S(C)(=O)=O)n1 [Example 110, 1-(3-t-butyl-1-(1-(methylsulfonyl)indolin-5-yl)-1H-pyrazol-5-yl)-3-(2,4,5-tri-fluorophenyl)urea]
- IC50 [4]: 360 nM
- IC50 [2]: 3.4 nM
- IC50 [3]: 140 nM

Compound: COc1ccc(-n2nc(C(C)(C)C)cc2NC(=O)Nc2cccc(Cl)c2)cc1 [Example 240, 1-[3-t-butyl-1-(4-methoxyphenyl)-1H-pyrazol-5-yl]-3-(3-chlorophenyl)urea]
- IC50 [1]: 470 nM
- IC50 [2]: 50 nM
- IC50 [3]: 3700 nM

Compound: CC(C)(C)c1cc(NC(=O)Nc2cc(F)cc(F)c2F)n(-c2ccc3ncccc3c2)n1 [Example 54, 1-(3-t-butyl-1-(quinolin-6-yl)-1H-pyrazol-5-yl)-3-(2,3,5-trifluorophenyl)urea]
- IC50 [4]: 120 nM
- IC50 [2]: 4.8 nM
- IC50 [3]: 240 nM

Compound: CC(C)(C)c1cc(NC(=O)Nc2cccc(Cl)c2Cl)n(-c2ccc3c(c2)CCN3S(C)(=O)=O)n1 [Example 108, 1-(3-t-butyl-1-(1-(methylsulfonyl)indolin-5-yl)-1H-pyrazol-5-yl)-3-(2,3-dichlorophenyl)urea]
- IC50 [4]: 250 nM
- IC50 [1]: 9 nM
- IC50 [2]: 1.5 nM
- IC50 [3]: 13 nM

Compound: CC(C)(C)c1cc(NC(=O)Nc2ccc(Cl)cc2)n(-c2cnc3ccccc3c2)n1 [Example 56, 1-(3-t-butyl-1-(quinolin-3-yl)-1H-pyrazol-5-yl)-3-(4-chlorophenyl)urea]
- IC50 [4]: 4800 nM
- IC50 [3]: 3100 nM

Compound: COc1cccc(-n2nc(C(C)(C)C)cc2NC(=O)Nc2ccc(C#N)cc2)c1 [Example 16, 1-(3-t-butyl-1-(3-methoxyphenyl)-1H-pyrazol-5-yl)-3-(4-cyanophenyl)urea]
- IC50 [4]: 5900 nM
- IC50 [1]: 1300 nM
- IC50 [3]: 3400 nM

Compound: COc1cccc(-n2nc(C(C)(C)C)cc2NC(=O)Nc2ccc(Cl)cc2Cl)c1 [Example 233, 1-(3-t-butyl-1-(3-methoxyphenyl)-1H-pyrazol-5-yl)-3-(2,4-dichlorophenyl)urea]
- IC50 [1]: 50 nM
- IC50 [2]: 28 nM
- IC50 [3]: 410 nM

Compound: CC(C)(C)c1cc(NC(=O)Nc2cccc(Cl)c2Cl)n(-c2cccc(CC(=O)N3CCC[C@@H]3C(=O)O)c2)n1 [Example 400, (2R)-1-[2-(3-{3-t-butyl-5-[3-(2,3-dichlorophenyl)ureido]-1H-pyrazol-1-yl}phenyl)acetyl]pyrrolidine-2-carboxylic acid]
- IC50 [1]: 46 nM
- IC50 [2]: 19 nM
- IC50 [3]: 3700 nM

Compound: CC(C)(C)c1cc(NC(=O)Nc2cc(F)c(F)c(F)c2)n(-c2cccc(C#N)c2)n1 [Example 12, 1-(3-t-butyl-1-(3-cyanophenyl)-1H-pyrazol-5-yl)-3-(3,4,5-trifluorophenyl)urea]
- IC50 [4]: 390 nM
- IC50 [3]: 280 nM

Compound: CC(C)(C)c1cc(NC(=O)Nc2ccc(F)c(F)c2F)n(-c2cccc(C#N)c2)n1 [Example 210, 1-(3-t-butyl-1-(3-cyanophenyl)-1H-pyrazol-5-yl)-3-(2,3,4-trifluorophenyl)urea]
- IC50 [1]: 24 nM
- IC50 [3]: 110 nM

Compound: CC(C)(C)c1cc(NC(=O)Nc2cc(F)ccc2F)n(-c2cccc(C#N)c2)n1 [Example 213, 1-(3-t-butyl-1-(3-cyanophenyl)-1H-pyrazol-5-yl)-3-(2,5-difluorophenyl)urea]
- IC50 [1]: 67 nM
- IC50 [2]: 12 nM
- IC50 [3]: 210 nM

Compound: CCOC(=O)Cc1cccc(-n2nc(C(C)(C)C)cc2NC(=O)Nc2cccc(Cl)c2Cl)c1 [Example 23, ethyl 2-(3-(3-t-butyl-5-(3-(2,3-dichlorophenyl)ureido)-1H-pyrazol-1-yl)phenyl)acetate]
- IC50 [4]: 3800 nM
- IC50 [1]: 21 nM
- IC50 [2]: 4.8 nM
- IC50 [3]: 1000 nM

Compound: CC(C)(C)c1cc(NC(=O)Nc2cccc(Cl)c2Cl)n(-c2ccc3ncccc3c2)n1 [Example 52, 1-[3-t-butyl-1-(quinolin-6-yl)-1H-pyrazol-5-yl]-3-(2,3-dichlorophenyl)urea]
- IC50 [4]: 140 nM
- IC50 [1]: 23 nM
- IC50 [2]: 1.8 nM
- IC50 [3]: 63 nM

Compound: CC(C)(C)c1cc(NC(=O)Nc2cccc(Cl)c2Cl)n(-c2cccc(CC(=O)N3CCC(C(=O)O)CC3)c2)n1 [Example 345, 1-[2-(3-{3-t-butyl-5-[3-(2,3-dichlorophenyl)ureido]-1H-pyrazol-1-yl}phenyl)acetyl]piperidine-4-carboxylic acid]
- IC50 [1]: 19 nM
- IC50 [3]: 2900 nM

Compound: CC(C)(C)c1cc(NC(=O)Nc2cccc(F)c2F)n(-c2cccc(C#N)c2)n1 [Example 4, 1-[3-t-butyl-1-(3-cyan-phenyl)-1H-pyrazol-5-yl]-3-(2,3-difluorophenyl)urea]
- IC50 [4]: 2900 nM
- IC50 [3]: 310 nM

Compound: CC(C)(C)c1cc(NC(=O)Nc2cc(F)c(F)cc2F)n(-c2ccc3ncccc3c2)n1 [Example 53, 1-(3-t-butyl-1-(quinolin-6-yl)-1H-pyrazol-5-yl)-3-(2,4,5-trifluorophenyl)urea]
- IC50 [4]: 360 nM
- IC50 [2]: 4.5 nM
- IC50 [3]: 490 nM

Compound: CC(C)(C)c1cc(NC(=O)Nc2cccc(Cl)c2Cl)n(-c2cccc(CC(=O)N3CCCC(C(=O)O)C3)c2)n1 (centres unmarked) [Example 398, 1-[2-(3-{3-t-butyl-5-[3-(2,3-dichlorophenyl)-ureido]-1H-pyrazol-1-yl}-phenyl)acetyl]piperidine-3-carboxylic acid]
- IC50 [1]: 26 nM
- IC50 [2]: 12 nM
- IC50 [3]: 2700 nM

Compound: COc1ccc(-n2nc(C(C)(C)C)cc2NC(=O)Nc2cccc(Cl)c2Cl)cc1 [Example 18, 1-[3-t-butyl-1-(4-methoxyphenyl)-1H-pyrazol-5-yl]-3-(2,3-dichlorophenyl)urea]
- IC50 [4]: 830 nM
- IC50 [2]: 458 nM
- IC50 [3]: 240 nM

Compound: CC(C)(C)c1cc(NC(=O)Nc2cccc(Cl)c2Cl)n(-c2ccc3c(c2)CC(C(N)=O)NC3)n1 (centres unmarked) [Example 188, 1-(3-t-butyl-1-(3-carbamoyl-1,2,3,4-tetrahydroisoquinolin-6-yl)-1H-pyrazol-5-yl)-3-(2,3-dichloro-phenyl)urea]
- IC50 [4]: 110 nM
- IC50 [1]: 17 nM
- IC50 [2]: 5.8 nM
- IC50 [3]: 150 nM

Compound: COc1ccc(-n2nc(C(C)(C)C)cc2NC(=O)Nc2ccccc2F)cc1 [Example 237, 1-[3-t-butyl-1-(4-methoxyphenyl)-1H-pyrazol-5-yl]-3-(2-fluorophenyl)urea]
- IC50 [1]: 580 nM
- IC50 [2]: 59 nM
- IC50 [3]: 4900 nM

Compound: CC(C)(C)c1cc(NC(=O)Nc2cccc3ccccc23)n(-c2ccc3c(c2)CCC(=O)N3)n1 [Example 198, 1-(3-t-butyl-1-(2-oxo-1,2,3,4-tetrahydroquinolin-6-yl)-1H-pyrazol-5-yl)-3-(naphthalen-1-yl)urea]
- IC50 [1]: 59 nM
- IC50 [3]: 1300 nM

Compound: Cn1ccc2cc(-n3nc(C(C)(C)C)cc3NC(=O)Nc3cccc(Cl)c3Cl)ccc21 [Example 117, 1-(3-t-butyl-1-(1-methyl-1H-indol-5-yl)-1H-pyrazol-5-yl)-3-(2,3-dichlorophenyl)urea]
- IC50 [4]: 230 nM
- IC50 [1]: 59 nM
- IC50 [2]: 3.2 nM
- IC50 [3]: 58 nM
